Molecules are shown by their SMILES.

In this assay the target is T1, soluble guanylate cyclase (sGC) (Homo sapiens, UniProt Q02108+Q02153).
T1 construct: endogenously expressing soluble guanylate cyclase (sGC); endogenous in cells; host or cells: HEK293
T1 sequence (Q02153 1-619): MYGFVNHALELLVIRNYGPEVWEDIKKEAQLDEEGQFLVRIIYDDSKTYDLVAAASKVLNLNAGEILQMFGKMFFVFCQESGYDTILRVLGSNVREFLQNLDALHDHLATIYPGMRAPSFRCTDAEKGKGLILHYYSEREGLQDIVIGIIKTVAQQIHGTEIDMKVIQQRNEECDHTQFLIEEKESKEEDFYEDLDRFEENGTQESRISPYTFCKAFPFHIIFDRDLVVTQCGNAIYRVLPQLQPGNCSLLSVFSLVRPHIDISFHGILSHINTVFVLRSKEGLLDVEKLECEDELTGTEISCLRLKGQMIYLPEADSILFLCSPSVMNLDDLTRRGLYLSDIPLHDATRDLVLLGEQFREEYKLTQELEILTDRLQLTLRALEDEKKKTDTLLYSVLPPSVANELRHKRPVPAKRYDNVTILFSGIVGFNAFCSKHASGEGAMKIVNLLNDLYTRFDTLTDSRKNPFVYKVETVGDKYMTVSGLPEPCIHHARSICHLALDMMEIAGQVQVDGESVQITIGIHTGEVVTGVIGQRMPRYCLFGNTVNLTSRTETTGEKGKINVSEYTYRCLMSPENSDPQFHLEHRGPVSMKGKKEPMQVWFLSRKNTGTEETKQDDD
T1 sequence (Q02108 1-690): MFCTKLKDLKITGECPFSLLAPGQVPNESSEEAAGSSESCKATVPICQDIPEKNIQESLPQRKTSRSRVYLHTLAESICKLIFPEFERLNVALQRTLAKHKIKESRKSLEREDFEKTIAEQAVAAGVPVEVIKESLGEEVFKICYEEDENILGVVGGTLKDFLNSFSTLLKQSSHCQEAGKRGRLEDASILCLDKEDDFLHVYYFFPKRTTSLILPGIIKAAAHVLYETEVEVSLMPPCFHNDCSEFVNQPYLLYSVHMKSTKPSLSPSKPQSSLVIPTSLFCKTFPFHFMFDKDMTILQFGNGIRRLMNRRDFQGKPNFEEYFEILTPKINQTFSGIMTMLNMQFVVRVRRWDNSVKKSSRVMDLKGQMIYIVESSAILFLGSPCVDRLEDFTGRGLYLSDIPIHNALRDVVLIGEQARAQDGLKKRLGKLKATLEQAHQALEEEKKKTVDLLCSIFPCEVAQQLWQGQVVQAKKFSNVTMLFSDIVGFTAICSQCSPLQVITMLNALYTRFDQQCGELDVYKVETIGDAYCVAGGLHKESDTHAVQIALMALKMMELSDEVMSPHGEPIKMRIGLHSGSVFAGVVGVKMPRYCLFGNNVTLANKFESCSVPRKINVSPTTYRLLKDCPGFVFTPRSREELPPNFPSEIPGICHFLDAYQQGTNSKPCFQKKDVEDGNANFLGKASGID
Kind of assay: sGC-HEK-cGMP assay with LC/MS detection. Type of assay: cell-based. Particulars: HEK293 whole cells, LC/MS detection of cGMP, 10 μM DETA-NONOate; 50% of high control response (30 μM Compound Y); read-out: Absolute EC50 (nM)- binned (~).

Experimental: Human embryonic kidney cells (HEK293), endogenously expressing soluble guanylate cyclase (sGC), were used to evaluate the activity of test compounds. Compounds stimulating the sGC enzyme should cause an increase in the intracellular concentration of cGMP. HEK 293 cells were seeded in Dulbecco's Modification of Eagle's Medium supplemented with fetal bovine serum (10% final) and penicillin (100 U/mL)/streptomycin (100 μg/mL) in a 50 μL volume at a density of 1.5×10^4 cells/well in a poly-D-lysine coated 384 well flat bottom plate. Cells were incubated overnight at 37° C. in a humidified chamber with 5% CO2. Medium was aspirated and cells were washed with 1× Hank's Buffered Saline Salt Solution (50 μL). Cells were then incubated for 15 minutes at 37° C. with 50 μL of a 0.5 mM 3-isobutyl-1-methylxanthine (IBMX) solution.
were then added to the assay mixture and the resulting mixture incubated at 37° C. for 20 minutes. After the 20 minute incubation, the assay mixture was aspirated and 10% acetic acid containing 150 ng/mL+3-cGMP (internal standard for LCMS) (50 μL) was added to the cells. The plate was incubated at 4° C. for 30 minutes in the acetic acid solution to stop the reaction and lyse the cells. The plates were then centrifuged at 1,000 g for 3 minutes at 4° C. and the supernatant transferred to a clean reaction plate for LCMS analysis.
cGMP concentrations were determined from each sample using the LCMS conditions below (Table 2) and calculated standard curve.
Data were fit using a 4-parameter fit (log(agonist) vs. response—variable slope) using GraphPad Prism Software v.5. n=2 for all compounds. […] Compounds failing to elicit a minimum response of 50% are reported as >30 μM.

As for `CC(=O)c1cc(-c2ncc(F)c(N3CCC(O)C(CO)C3)n2)nn1Cc1ccccc1F` (stereo not drawn) [Compound 117], the concentration for a half-maximal effect (EC50) (usually the concentration that produces a half-maximal response) lay in the range of 100 to 1000 nM.
Regarding `CC(=O)c1cc(-c2ncc(F)c(N3CC4(COC4)C3)n2)nn1Cc1ccccc1F` [Compound 118], the EC50 is over 1000 nM.
As for `CC(=O)c1cc(-c2ncc(F)c(N3CCCS3(=O)=O)n2)nn1Cc1ccccc1F` [Compound 119], the figure is over 1000 nM; as for `CC(=O)c1cc(-c2ncc(F)c(N3CCN(S(C)(=O)=O)CC3)n2)nn1Cc1ccccc1F` [Compound 120], over 30000 nM.
As for `CC(=O)c1cc(-c2ncc(F)c(N3CC(NC(=O)C(F)(F)F)C3)n2)nn1Cc1ccccc1F` [Compound 121], the figure is over 1000 nM; as for `CC(=O)c1cc(-c2ncc(F)c(N3CC(NC(=O)C4(O)CC4)C3)n2)nn1Cc1ccccc1F` [Compound 122], over 1000 nM; as for `CC(=O)c1cc(-c2ncc(F)c(NC3CCCCC3C(=O)O)n2)nn1Cc1ccccc1F` (stereo not drawn) [Compound 123], 100 to 1000 nM.
As for `CC(=O)c1cc(-c2ncc(F)c(NCCO)n2)nn1Cc1ccccc1F` [Compound 125], the figure is over 1000 nM.
For `CC(=O)c1cc(-c2ncc(F)c(Nc3nnc(C(F)(F)F)s3)n2)nn1Cc1ccccc1F` [Compound 126], the EC50 is over 30000 nM.
Turning to `OCC(CCCC(F)(F)F)Nc1nc(-c2cc(-c3ccon3)n(Cc3ccccc3F)n2)ncc1F` (stereo not drawn) [Compound 127, 6,6,6-trifluoro-2-((5-fluoro-2-(1-(2-fluorobenzyl)-5-(isoxazol-3-yl)-1H-pyrazol-3-yl)pyrimidin-4-yl)amino)hexan-1-ol], the EC50 was under 100 nM.
As for `CCC(C)(N)CNc1nc(-c2cc(C(C)=O)n(Cc3ccccc3F)n2)ncc1F` (stereo not drawn) [Compound 129, 1-(3-(4-((2-amino-2-methylbutyl)amino)-5-fluoropyrimidin-2-yl)-1-(2-fluorobenzyl)-1H-pyrazol-5-yl)ethanone], the figure is over 1000 nM; as for `C[C@@](CNc1nc(-c2cc(-c3ccon3)n(Cc3ccccc3F)n2)ncc1F)(NC(CO)c1ccccc1)C(F)(F)F` (stereo partly drawn) [Compound 130, 2-phenyl-2-(((S)-1,1,1-trifluoro-3-((5-fluoro-2-(1-(2-fluorobenzyl)-5-(isoxazol-3-yl)-1H-pyrazol-3-yl)pyrimidin-4-yl)amino)-2-methylpropan-2-yl)amino)ethanol], 100 to 1000 nM; as for `C[C@](CNc1nc(-c2cc(-c3ccon3)n(Cc3ccccc3F)n2)ncc1F)(NC(CO)c1ccccc1)C(F)(F)F` (stereo partly drawn) [Compound 131, 2-phenyl-2-(((R)-1,1,1-trifluoro-3-((5-fluoro-2-(1-(2-fluorobenzyl)-5-(isoxazol-3-yl)-1H-pyrazol-3-yl)pyrimidin-4-yl)amino)-2-methylpropan-2-yl)amino)ethanol], 100 to 1000 nM.
On to `CC(=O)c1cc(-c2ncc(F)c(N3CC(C(=O)O)C(C)(C)C3)n2)nn1Cc1ccccc1F` (stereo not drawn) [Compound 136, 1-(2-(5-acetyl-1-(2-fluorobenzyl)-1H-pyrazol-3-yl)-5-fluoropyrimidin-4-yl)-4,4-dimethylpyrrolidine-3-carboxylic acid], for which the EC50 is 100 to 1000 nM.
As for `CC(=O)c1cc(-c2ncc(F)c(N[C@@H]3CCCC[C@H]3C(=O)O)n2)nn1Cc1ccccc1F` [Compound 137, (1R,2R)-2-((2-(5-acetyl-1-(2-fluorobenzyl)-1H-pyrazol-3-yl)-5-fluoropyrimidin-4-yl)amino)cyclohex anecarboxylic acid], the figure is 100 to 1000 nM; as for `CC(=O)c1cc(-c2ncc(F)c(N[C@@H](CC(=O)O)C(C)C)n2)nn1Cc1ccccc1F` [Compound 138, (S)-3-((2-(5-acetyl-1-(2-fluorobenzyl)-1H-pyrazol-3-yl)-5-fluoropyrimidin-4-yl)amino)-4-methylpentanoic acid], 100 to 1000 nM; as for `CC(=O)c1cc(-c2ncc(F)c(N3CCC(C(=O)O)(c4ccccc4)CC3)n2)nn1Cc1ccccc1F` [Compound 139, 1-(2-(5-acetyl-1-(2-fluorobenzyl)-1H-pyrazol-3-yl)-5-fluoropyrimidin-4-yl)-4-phenylpiperidine-4-carboxylic acid], 100 to 1000 nM.
On to `CCN(CC)c1nc(-c2cc(-c3ncco3)n(Cc3ccccc3F)n2)ncc1F` [Compound 140], for which the EC50 is over 1000 nM.
As for `COC1=CC(=O)N(c2nc(-c3cc(-c4ccon4)n(Cc4ccccc4F)n3)ncc2F)C1` [Compound 147, 1-(5-fluoro-2-(1-(2-fluorobenzyl)-5-(isoxazol-3-yl)-1H-pyrazol-3-yl)pyrimidin-4-yl)-4-methoxy-1H-pyrrol-2(5H)-one], the figure is over 1000 nM; as for `CC(C)[C@H](CO)Nc1nc(-c2cc(-c3ccon3)n(Cc3ccccc3F)n2)ncc1F` [Compound 148, (R)-2-((5-fluoro-2-(1-(2-fluorobenzyl)-5-(isoxazol-3-yl)-1H-pyrazol-3-yl)pyrimidin-4-yl)amino)-3-methylbutan-1-ol], under 100 nM; as for `CC(C)C[C@H](CO)Nc1nc(-c2cc(-c3ccon3)n(Cc3ccccc3F)n2)ncc1F` [Compound 149, (R)-2-((5-fluoro-2-(1-(2-fluorobenzyl)-5-(isoxazol-3-yl)-1H-pyrazol-3-yl)pyrimidin-4-yl)amino)-4-m ethylpentan-1-ol], under 100 nM.
Take `CSCC[C@H](CO)Nc1nc(-c2cc(-c3ccon3)n(Cc3ccccc3F)n2)ncc1F` [Compound 150, (R)-2-((5-fluoro-2-(1-(2-fluorobenzyl)-5-(isoxazol-3-yl)-1H-pyrazol-3-yl)pyrimidin-4-yl)amino)-4-(methylthio)butan-1-ol]: the EC50 was under 100 nM.
With `CCCC[C@H](CO)Nc1nc(-c2cc(-c3ccon3)n(Cc3ccccc3F)n2)ncc1F` [Compound 151, (R)-2-((5-fluoro-2-(1-(2-fluorobenzyl)-5-(isoxazol-3-yl)-1H-pyrazol-3-yl)pyrimidin-4-yl)amino)hexan-1-ol], the EC50 is under 100 nM.
For `CCC[C@H](CO)Nc1nc(-c2cc(-c3ccon3)n(Cc3ccccc3F)n2)ncc1F` [Compound 152, (R)-2-((5-fluoro-2-(1-(2-fluorobenzyl)-5-(isoxazol-3-yl)-1H-pyrazol-3-yl)pyrimidin-4-yl)amino)pentan-1-ol], the EC50 is under 100 nM.
As for `CCC(N)(CC)CNc1nc(-c2cc(-c3ccon3)n(Cc3ccccc3F)n2)ncc1F` [Compound 153, 2-ethyl-N1-(5-fluoro-2-(1-(2-fluorobenzyl)-5-(isoxazol-3-yl)-1H-pyrazol-3-yl)pyrimidin-4-yl)butane-1,2-diamine], the figure is 100 to 1000 nM; as for `CC(C)C(C)(N)CNc1nc(-c2cc(-c3ccon3)n(Cc3ccccc3F)n2)ncc1F` (stereo not drawn) [Compound 154, N1-(5-fluoro-2-(1-(2-fluorobenzyl)-5-(isoxazol-3-yl)-1H-pyrazol-3-yl)pyrimidin-4-yl)-2,3-dimethylbutane-1,2-diamine], 100 to 1000 nM; as for `CCCC(C)(N)CNc1nc(-c2cc(-c3ccon3)n(Cc3ccccc3F)n2)ncc1F` (stereo not drawn) [Compound 155, N1-(5-fluoro-2-(1-(2-fluorobenzyl)-5-(isoxazol-3-yl)-1H-pyrazol-3-yl)pyrimidin-4-yl)-2-methylpentane-1,2-diamine], 100 to 1000 nM.
As for `CC(C)CC(C)(N)CNc1nc(-c2cc(-c3ccon3)n(Cc3ccccc3F)n2)ncc1F` (stereo not drawn) [Compound 156, N1-(5-fluoro-2-(1-(2-fluorobenzyl)-5-(isoxazol-3-yl)-1H-pyrazol-3-yl)pyrimidin-4-yl)-2,4-dimethylpentane-1,2-diamine], the figure is 100 to 1000 nM; as for `C[C@H]1CCCN(c2nc(-c3cc(-c4ccon4)n(Cc4ccccc4F)n3)ncc2F)[C@H]1C(=O)OCCN1CCOCC1` [Compound 157, (2R,3S)-2-morpholinoethyl 1-(5-fluoro-2-(1-(2-fluorobenzyl)-5-(isoxazol-3-yl)-1H-pyrazol-3-yl)pyrimidin-4-yl)-3-methylpiperidine-2-carboxylate], over 1000 nM; as for `O=C(Nc1nc(-c2cc(-c3ccon3)n(Cc3ccccc3F)n2)ncc1F)OCCN1CCOCC1` [Compound 158, 2-morpholinoethyl (5-fluoro-2-(1-(2-fluorobenzyl)-5-(isoxazol-3-yl)-1H-pyrazol-3-yl)pyrimidin-4-yl)carbamate], over 1000 nM.

Source of the values: US20190284168A1, “PYRAZOLE DERIVATIES AS SGC STIMULATORS” (IRONWOOD PHARMACEUTICALS, INC., priority 2014, published 2019).
